Laboratory results published in patent US20020156236A1, “Binding sites for phosphotyrosine binding domains” (priority 1995, published 2002).
Like-named read-outs stand apart in the source and are kept apart here. Where a SMILES comes first, the peptide text is derived from it. Where no end group is shown, it is not given here.

Target: T1, PTB domain/c-erbB2 binding (GST-PTB domain of SHC; c-erbB2 from SKBR3 lysate) (Homo sapiens, UniProt P29353)
T1 construct: GST-PTB domain fusion proteins were expressed from recombinant baculovirus in sf9 cells; made in house; host or cells: Sf9 cells (recombinant baculovirus) for GST-PTB; c-erbB2 endogenous in SKBR3 cell lysate
T1 sequence (P29353 156-341): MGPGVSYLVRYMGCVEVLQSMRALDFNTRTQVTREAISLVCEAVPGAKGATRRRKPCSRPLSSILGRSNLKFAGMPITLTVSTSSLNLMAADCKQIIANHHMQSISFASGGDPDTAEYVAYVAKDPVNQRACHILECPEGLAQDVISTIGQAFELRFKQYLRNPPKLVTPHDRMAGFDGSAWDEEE
Assay: biochemical
Conditions: for block of PTB/c-erbB2 interaction at one peptide concentration, in words: FIG. 2C, 300 nM peptides (legend says 500 nM)

[1] = approximate IC50, inhibition of PTB domain/c-erbB2 binding
[2] = Affinity (IC50), Table 3, ability to block PTB domain/c-erbB2 binding

Row | Compound | IC50 (Affinity (IC50)) | IC50 (Apparent Inhibition (IC50)) | other results
1 | NC(Cc1ccccc1)C(=O)NC(Cc1ccccc1)C(=O)O (stereo not shown) |  |  | IC50 (Table 3, ability to block PTB domain/c-erbB2 binding, read-out: Affinity (IC50)): > 30000 nM
2 | CC(C)C[C@H](NC(=O)[C@H](CC(N)=O)NC(=O)[C@H](CC(=O)O)NC(=O)[C@H](Cc1ccccc1)NC(=O)[C@H](C)N)C(=O)N[C@@H](Cc1ccc(OP(=O)(O)O)cc1)C(=O)N[C@@H](Cc1ccc(OP(=O)(O)O)cc1)C(=O)N[C@@H](Cc1c[nH]c2ccccc12)C(=O)N[C@@H](CC(=O)O)C(=O)N[C@@H](CCC(N)=O)C(=O)N[C@@H](CC(N)=O)C(=O)N[C@@H](CO)C(=O)O [AFDNL (pY) (pY) WDQNS, AFDNL(pY)(pY)WDQNS] (HELM PEPTIDE1{A.F.D.N.L.[O=C([C@H](Cc1ccc(OP(=O)(O)O)cc1)N[*:1])[*:2]].[O=C([C@H](Cc1ccc(OP(=O)(O)O)cc1)N[*:1])[*:2]].W.D.Q.N.S}$$$$V2.0) | 30 nM |  | 
3 | CC(C)C[C@H](NC(=O)[C@H](CC(N)=O)NC(=O)[C@H](CC(=O)O)NC(=O)[C@H](Cc1ccccc1)NC(=O)[C@H](C)N)C(=O)N[C@@H](Cc1ccc(OP(=O)(O)O)cc1)C(=O)N[C@@H](Cc1ccc(O)cc1)C(=O)N[C@@H](Cc1c[nH]c2ccccc12)C(=O)N[C@@H](CC(=O)O)C(=O)N[C@@H](CCC(N)=O)C(=O)N[C@@H](CC(N)=O)C(=O)N[C@@H](CO)C(=O)O [AFDNL (pY) YWDQNS, AFDNL(pY)YWDQNS] (HELM PEPTIDE1{A.F.D.N.L.[O=C([C@H](Cc1ccc(OP(=O)(O)O)cc1)N[*:1])[*:2]].Y.W.D.Q.N.S}$$$$V2.0; N-terminus and C-terminus assumed) | 1000 nM |  | fold less effective in competition: 30 fold; inhibition of / competition for PTB domain/c-erbB2 binding, in words: strong inhibition; block of PTB/c-erbB2 interaction at one peptide concentration, in words: some inhibition
4 | CC(C)C[C@H](NC(=O)[C@H](CC(N)=O)NC(=O)[C@H](CC(=O)O)NC(=O)[C@H](Cc1ccccc1)NC(=O)[C@H](C)N)C(=O)N[C@@H](Cc1ccc(O)cc1)C(=O)N[C@@H](Cc1ccc(OP(=O)(O)O)cc1)C(=O)N[C@@H](Cc1c[nH]c2ccccc12)C(=O)N[C@@H](CC(=O)O)C(=O)N[C@@H](CCC(N)=O)C(=O)N[C@@H](CC(N)=O)C(=O)N[C@@H](CO)C(=O)O [AFDNLY (pY) WDQNS, AFDNLY(pY)WDQNS] (HELM PEPTIDE1{A.F.D.N.L.Y.[O=C([C@H](Cc1ccc(OP(=O)(O)O)cc1)N[*:1])[*:2]].W.D.Q.N.S}$$$$V2.0; N-terminus and C-terminus assumed) | 30 nM | 30 nM | IC50 compared with that of AFDNL(pY)(pY)WDQNS, in words: approximately equal; block of PTB/c-erbB2 interaction at one peptide concentration, in words: completely block; IC50 [1]: ~30 nM
5 | CC(C)C[C@H](NC(=O)[C@H](Cc1ccc(OP(=O)(O)O)cc1)NC(=O)[C@H](CCC(=O)O)NC(=O)[C@@H]1CCCN1C(=O)[C@H](CC(N)=O)NC(=O)[C@H](CCC(=O)O)NC(=O)[C@@H](NC(=O)[C@H](C)NC(=O)CNC(=O)CNC(=O)[C@H](Cc1ccccc1)NC(=O)[C@H](C)N)C(C)C)C(=O)N[C@@H](C)C(=O)N1CCC[C@H]1C(=O)N[C@@H](CCCNC(=N)N)C(=O)N[C@@H](C)C(=O)NCC(=O)N[C@H](C(=O)N[C@@H](C)C(=O)N[C@@H](CO)C(=O)N[C@@H](CCC(N)=O)C(=O)O)[C@@H](C)O [AFGGAVENPE (pY) LAPRAGTASQ, AFGGAVENPE(pY)LAPRAGTASQ] (HELM PEPTIDE1{A.F.G.G.A.V.E.N.P.E.[O=C([C@H](Cc1ccc(OP(=O)(O)O)cc1)N[*:1])[*:2]].L.A.P.R.A.G.T.A.S.Q}$$$$V2.0) |  | 1000 nM | IC50 [1]: ~1000 nM
6 | CC(C)C[C@H](NC(=O)[C@@H]1CCCN1C(=O)[C@H](C)N)C(=O)N[C@@H](C)C(=O)N[C@@H](CS)C(=O)N[C@@H](CO)C(=O)N1CCC[C@H]1C(=O)N[C@@H](CCC(N)=O)C(=O)N1CCC[C@H]1C(=O)N[C@@H](CCC(=O)O)C(=O)N[C@@H](Cc1ccc(OP(=O)(O)O)cc1)C(=O)N[C@H](C(=O)N[C@@H](CC(N)=O)C(=O)N[C@@H](CCC(N)=O)C(=O)N1CCC[C@H]1C(=O)N[C@@H](CCC(=O)O)C(=O)N[C@H](C(=O)N[C@@H](CCCNC(=N)N)C(=O)N1CCC[C@H]1C(=O)N[C@@H](CCC(N)=O)C(=O)N[C@@H](CO)C(=O)O)C(C)C)C(C)C [APLACSPQPE (pY) VNQPEVRPQS, APLACSPQPE(pY)VNQPEVRPQS] (HELM PEPTIDE1{A.P.L.A.C.S.P.Q.P.E.[O=C([C@H](Cc1ccc(OP(=O)(O)O)cc1)N[*:1])[*:2]].V.N.Q.P.E.V.R.P.Q.S}$$$$V2.0) |  | > 100000 nM | 
7 | CC(C)C[C@H](NC(=O)[C@H](CCC(N)=O)NC(=O)[C@H](CC(N)=O)NC(=O)[C@H](CCC(N)=O)NC(=O)[C@H](CO)NC(=O)[C@H](Cc1ccc(OP(=O)(O)O)cc1)NC(=O)[C@H](Cc1c[nH]c2ccccc12)NC(=O)[C@H](CO)NC(=O)[C@@H](N)CC(=O)O)C(=O)N[C@@H](Cc1ccccc1)C(=O)N[C@@H](CC(=O)O)C(=O)N[C@@H](CO)C(=O)N[C@@H](Cc1ccccc1)C(=O)N[C@@H](C)C(=O)N1CCC[C@H]1C(=O)N[C@@H](CCC(=O)O)C(=O)NCC(=O)N[C@@H](Cc1ccc(OP(=O)(O)O)cc1)C(=O)N1CCC[C@H]1C(=O)N[C@@H](C)C(=O)N[C@@H](CC(N)=O)C(=O)O [DSW (pY) SQNQLFDSFAPEG (pY) PAN] (HELM PEPTIDE1{D.S.W.[O=C([C@H](Cc1ccc(OP(=O)(O)O)cc1)N[*:1])[*:2]].S.Q.N.Q.L.F.D.S.F.A.P.E.G.[O=C([C@H](Cc1ccc(OP(=O)(O)O)cc1)N[*:1])[*:2]].P.A.N}$$$$V2.0) | > 30000 nM |  | 
8 | CC(C)C[C@H](NC(=O)[C@H](CCC(N)=O)NC(=O)[C@H](CC(N)=O)NC(=O)[C@H](CCC(N)=O)NC(=O)[C@H](CC(=O)O)NC(=O)[C@H](Cc1c[nH]c2ccccc12)NC(=O)[C@H](CO)NC(=O)[C@@H](N)CC(=O)O)C(=O)N[C@@H](Cc1ccccc1)C(=O)N[C@@H](CO)C(=O)N[C@@H](Cc1ccc(OP(=O)(O)O)cc1)C(=O)N[C@@H](Cc1ccc(OP(=O)(O)O)cc1)C(=O)N[C@@H](CO)C(=O)N[C@@H](Cc1ccccc1)C(=O)N[C@@H](C)C(=O)N1CCC[C@H]1C(=O)N[C@@H](CCC(=O)O)C(=O)NCC(=O)N1CCC[C@H]1C(=O)N[C@@H](C)C(=O)N[C@@H](CC(N)=O)C(=O)O [DSWDQNQLFS (pY) (pY) SFAPEGPAN] (HELM PEPTIDE1{D.S.W.D.Q.N.Q.L.F.S.[O=C([C@H](Cc1ccc(OP(=O)(O)O)cc1)N[*:1])[*:2]].[O=C([C@H](Cc1ccc(OP(=O)(O)O)cc1)N[*:1])[*:2]].S.F.A.P.E.G.P.A.N}$$$$V2.0) | > 30000 nM |  | 
9 | CC(C)C[C@H](NC(=O)CNC(=O)[C@H](CC(C)C)NC(=O)[C@H](Cc1ccc(OP(=O)(O)O)cc1)NC(=O)[C@H](CCC(=O)O)NC(=O)[C@@H]1CCCN1C(=O)[C@H](CC(N)=O)NC(=O)[C@H](CCC(=O)O)NC(=O)[C@H](C)NC(=O)[C@@H](NC(=O)[C@@H]1CCCN1C(=O)[C@@H](NC(=O)CNC(=O)[C@@H](N)CCC(=O)O)[C@@H](C)O)[C@@H](C)O)C(=O)N[C@@H](CC(=O)O)C(=O)N[C@H](C(=O)N1CCC[C@H]1C(=O)N[C@H](C(=O)O)C(C)C)C(C)C [EGTPTAENPE (pY) LGLDVPV, EGTPTAENPE(pY)LGLDVPV] (HELM PEPTIDE1{E.G.T.P.T.A.E.N.P.E.[O=C([C@H](Cc1ccc(OP(=O)(O)O)cc1)N[*:1])[*:2]].L.G.L.D.V.P.V}$$$$V2.0) |  | 1000 nM | IC50 [1]: ~1000 nM
10 | CC(C)C[C@H](NC(=O)[C@H](CC(N)=O)NC(=O)[C@H](CC(=O)O)NC(=O)[C@H](Cc1ccccc1)NC(=O)[C@H](C)NC(=O)[C@@H]1CCCN1C(=O)[C@H](CO)NC(=O)[C@H](Cc1ccccc1)NC(=O)[C@H](C)NC(=O)[C@@H]1CCCN1)C(=O)N[C@@H](COP(=O)(O)O)C(=O)N[C@@H](COP(=O)(O)O)C(=O)N[C@@H](Cc1c[nH]c2ccccc12)C(=O)N[C@@H](CC(=O)O)C(=O)N[C@@H](CCC(N)=O)C(=O)N[C@@H](CC(N)=O)C(=O)N[C@@H](CO)C(=O)N[C@@H](CO)C(=O)N[C@@H](CCC(=O)O)C(=O)N[C@@H](CCC(N)=O)C(=O)NCC(=O)O [PAFSPAFDNL (pS) (pS) WDQNSSEQG] (HELM PEPTIDE1{P.A.F.S.P.A.F.D.N.L.[O=C([C@H](COP(=O)(O)O)N[*:1])[*:2]].[O=C([C@H](COP(=O)(O)O)N[*:1])[*:2]].W.D.Q.N.S.S.E.Q.G}$$$$V2.0) |  |  | IC50 [2]: > 30000 nM
11 | CC(C)C[C@H](NC(=O)[C@@H]1CCCN1C(=O)[C@H](CC(C)C)NC(=O)[C@@H](NC(=O)[C@@H]1CCCN1C(=O)[C@H](CC(=O)O)NC(=O)[C@H](CCC(=O)O)NC(=O)[C@H](CO)NC(=O)[C@H](Cc1ccc(OP(=O)(O)O)cc1)NC(=O)[C@H](CCCNC(=N)N)NC(=O)[C@H](CCC(N)=O)NC(=O)[C@H](CC(C)C)NC(=O)[C@@H]1CCCN1C(=O)[C@H](CO)NC(=O)[C@H](CC(C)C)NC(=O)[C@H](CC(=O)O)NC(=O)[C@H](Cc1c[nH]cn1)NC(=O)[C@@H]1CCCN1C(=O)[C@@H](N)CO)[C@@H](C)O)C(=O)O [SPHDLSPLQR (pY) SEDPTLPL] (HELM PEPTIDE1{S.P.H.D.L.S.P.L.Q.R.[O=C([C@H](Cc1ccc(OP(=O)(O)O)cc1)N[*:1])[*:2]].S.E.D.P.T.L.P.L}$$$$V2.0) |  | > 100000 nM | 
12 | CC(C)C[C@H](NC(=O)[C@@H]1CCCN1C(=O)[C@H](C)NC(=O)[C@@H](NC(=O)[C@H](Cc1ccc(OP(=O)(O)O)cc1)NC(=O)CNC(=O)[C@H](CC(=O)O)NC(=O)[C@@H](NC(=O)[C@H](CCC(=O)O)NC(=O)[C@@H]1CCCN1C(=O)[C@@H]1CCCN1C(=O)[C@H](CC(C)C)NC(=O)[C@@H]1CCCN1C(=O)[C@H](CC(C)C)NC(=O)[C@@H](N)[C@@H](C)O)[C@@H](C)O)C(C)C)C(=O)N[C@@H](C)C(=O)N[C@@H](CS)C(=O)N[C@@H](CO)C(=O)N1CCC[C@H]1C(=O)N[C@@H](CCC(N)=O)C(=O)O [TLPLPPETDG (pY) VAPLACSPQ, TLPLPPETDG(pY)VAPLACSPQ] (HELM PEPTIDE1{T.L.P.L.P.P.E.T.D.G.[O=C([C@H](Cc1ccc(OP(=O)(O)O)cc1)N[*:1])[*:2]].V.A.P.L.A.C.S.P.Q}$$$$V2.0) |  | > 100000 nM | 
13 | PAFSPAFDNLEEWDQNSSEQG |  |  | IC50 [2]: > 30000 nM
